Assay results taken from ChEMBL document CHEMBL4680122, “Design, synthesis and biological evaluation of new Axl kinase inhibitors containing 1,3,4-oxadiazole acetamide moiety as novel linker” (Eur J Med Chem, 2020).

Legend:
MCF7 [1] = experiment: Antiproliferative activity against human MCF7 cells measured after 72 hrs by MTT assay; format: functional, cell-based; conditions: MCF7, 72 h
[2] = biological target: Platelet-derived growth factor receptor beta (Homo sapiens, UniProt P09619); experiment: Inhibition of human His-tagged PDGFRB cytoplasmic domain expressed in baculovirus expression system using peptide substrate measured after 1 hr by mobility shift assay
[3] = biological target: Aurora kinase B (Homo sapiens) (UniProt Q96GD4); experiment: Inhibition of Aurora-B (unknown origin) at 200 nM relative to control
Sequence of Aurora kinase B (Homo sapiens) (Q96GD4 whole entry): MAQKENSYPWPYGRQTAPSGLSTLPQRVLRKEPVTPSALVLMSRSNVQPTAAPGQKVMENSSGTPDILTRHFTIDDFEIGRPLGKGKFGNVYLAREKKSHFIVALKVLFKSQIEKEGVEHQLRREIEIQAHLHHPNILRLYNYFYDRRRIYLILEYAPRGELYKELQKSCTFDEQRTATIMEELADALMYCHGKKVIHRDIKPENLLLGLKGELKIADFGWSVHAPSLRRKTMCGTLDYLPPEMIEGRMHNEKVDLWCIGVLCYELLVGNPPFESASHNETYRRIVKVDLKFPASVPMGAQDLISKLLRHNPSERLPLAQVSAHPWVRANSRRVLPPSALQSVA

[4] = biological target: T1, Tyrosine-protein kinase Mer (Homo sapiens, UniProt Q12866); experiment: Inhibition of MER (unknown origin)
T1 sequence (Q12866 whole entry): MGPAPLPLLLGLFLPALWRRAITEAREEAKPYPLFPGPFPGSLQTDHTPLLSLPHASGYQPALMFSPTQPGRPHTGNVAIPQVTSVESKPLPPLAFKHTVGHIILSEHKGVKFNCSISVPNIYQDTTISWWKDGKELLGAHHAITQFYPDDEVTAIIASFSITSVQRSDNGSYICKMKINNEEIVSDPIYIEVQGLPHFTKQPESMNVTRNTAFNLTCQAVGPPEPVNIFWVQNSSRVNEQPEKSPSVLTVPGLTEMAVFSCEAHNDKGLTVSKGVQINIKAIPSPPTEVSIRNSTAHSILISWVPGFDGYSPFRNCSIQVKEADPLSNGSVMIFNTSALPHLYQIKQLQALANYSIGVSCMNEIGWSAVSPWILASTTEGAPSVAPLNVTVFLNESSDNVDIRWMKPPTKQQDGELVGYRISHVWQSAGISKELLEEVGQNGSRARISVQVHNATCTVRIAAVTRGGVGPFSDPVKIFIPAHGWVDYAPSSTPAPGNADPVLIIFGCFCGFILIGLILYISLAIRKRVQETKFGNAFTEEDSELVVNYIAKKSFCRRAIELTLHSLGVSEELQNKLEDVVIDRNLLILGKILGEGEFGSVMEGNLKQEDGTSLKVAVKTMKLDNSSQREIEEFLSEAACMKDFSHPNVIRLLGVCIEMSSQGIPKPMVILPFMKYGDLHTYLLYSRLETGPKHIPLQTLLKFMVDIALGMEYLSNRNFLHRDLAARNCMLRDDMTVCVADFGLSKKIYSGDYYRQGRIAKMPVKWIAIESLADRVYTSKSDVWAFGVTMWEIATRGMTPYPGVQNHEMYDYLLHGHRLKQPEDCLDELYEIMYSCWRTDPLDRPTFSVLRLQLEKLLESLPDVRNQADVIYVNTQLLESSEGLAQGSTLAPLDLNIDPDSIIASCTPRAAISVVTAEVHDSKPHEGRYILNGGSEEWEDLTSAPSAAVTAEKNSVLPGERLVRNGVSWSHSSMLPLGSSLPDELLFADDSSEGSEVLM

[5] = biological target: Vascular endothelial growth factor receptor 2 (Homo sapiens, UniProt P35968); experiment: Inhibition of human N-terminal GST-fused KDR cytoplasmic domain (790 to 1356 residues) expressed in baculovirus expression system using CSKtide as substrate measured after 1 hr by mobility shift assay
Sequence of Vascular endothelial growth factor receptor 2 (P35968 whole entry, the tested form may be a part): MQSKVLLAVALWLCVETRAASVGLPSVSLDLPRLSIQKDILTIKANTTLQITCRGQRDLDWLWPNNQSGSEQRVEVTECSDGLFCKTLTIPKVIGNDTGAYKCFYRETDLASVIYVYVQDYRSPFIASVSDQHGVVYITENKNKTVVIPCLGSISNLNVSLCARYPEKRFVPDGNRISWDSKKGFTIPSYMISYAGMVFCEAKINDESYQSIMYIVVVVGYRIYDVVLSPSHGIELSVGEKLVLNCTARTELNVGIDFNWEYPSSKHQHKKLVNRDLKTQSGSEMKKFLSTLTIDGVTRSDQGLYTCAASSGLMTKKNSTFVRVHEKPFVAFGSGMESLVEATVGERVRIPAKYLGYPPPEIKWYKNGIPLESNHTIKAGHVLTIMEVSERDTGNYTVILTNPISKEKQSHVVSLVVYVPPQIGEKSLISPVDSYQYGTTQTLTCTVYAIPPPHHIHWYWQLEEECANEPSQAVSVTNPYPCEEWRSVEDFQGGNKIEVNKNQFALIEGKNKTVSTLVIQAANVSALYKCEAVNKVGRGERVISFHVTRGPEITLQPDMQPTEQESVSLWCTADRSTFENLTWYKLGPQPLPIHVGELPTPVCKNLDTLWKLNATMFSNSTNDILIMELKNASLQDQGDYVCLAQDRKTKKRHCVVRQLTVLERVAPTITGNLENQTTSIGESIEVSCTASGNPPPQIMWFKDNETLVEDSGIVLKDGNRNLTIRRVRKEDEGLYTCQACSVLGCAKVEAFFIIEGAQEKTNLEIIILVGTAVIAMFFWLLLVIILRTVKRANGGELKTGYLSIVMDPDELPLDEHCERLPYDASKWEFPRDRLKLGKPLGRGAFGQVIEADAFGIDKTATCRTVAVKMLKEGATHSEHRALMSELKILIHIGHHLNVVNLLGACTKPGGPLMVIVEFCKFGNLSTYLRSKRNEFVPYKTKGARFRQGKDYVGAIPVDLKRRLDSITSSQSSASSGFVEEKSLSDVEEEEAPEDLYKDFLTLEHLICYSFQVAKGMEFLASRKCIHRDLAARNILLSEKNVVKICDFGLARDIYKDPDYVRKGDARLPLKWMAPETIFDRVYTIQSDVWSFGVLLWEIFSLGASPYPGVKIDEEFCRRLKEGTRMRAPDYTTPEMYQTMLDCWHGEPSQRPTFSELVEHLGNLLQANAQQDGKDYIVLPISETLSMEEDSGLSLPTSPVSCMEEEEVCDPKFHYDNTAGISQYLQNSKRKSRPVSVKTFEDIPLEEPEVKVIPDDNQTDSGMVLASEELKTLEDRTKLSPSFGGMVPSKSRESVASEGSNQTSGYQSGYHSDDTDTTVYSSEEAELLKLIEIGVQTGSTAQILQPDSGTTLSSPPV

PC-3 = experiment: cells; conditions: Homo sapiens, PC-3, 72 h
Description: Antiproliferative activity against human PC-3 cells measured after 72 hrs by MTT assay

NCI-H1975 = experiment: Antiproliferative activity against human NCI-H1975 cells measured after 72 hrs by MTT assay; format: functional, cell-based; conditions: NCI-H1975, 72 h
HT-29 [6] = experiment: Potency index, ratio of foretinib IC50 to test compound IC50 for antiproliferative activity against human HT-29 cells; format: functional
H1975/Gefitinib = experiment: cells; conditions: Homo sapiens, 72 h
HT-29 [7] = experiment: Antiproliferative activity against human HT-29 cells measured after 72 hrs by MTT assay; conditions: HT-29, 72 h
[8] = biological target: Hepatocyte growth factor receptor (Homo sapiens, UniProt P08581); experiment: Inhibition of human N-terminal GST-fused c-MET cytoplasmic domain (956 to 1390 residues) expressed in baculovirus expression system using Srctide as substrate measured after 1 hr by mobility shift assay
Sequence of Hepatocyte growth factor receptor (P08581 whole entry, the tested form may be a part): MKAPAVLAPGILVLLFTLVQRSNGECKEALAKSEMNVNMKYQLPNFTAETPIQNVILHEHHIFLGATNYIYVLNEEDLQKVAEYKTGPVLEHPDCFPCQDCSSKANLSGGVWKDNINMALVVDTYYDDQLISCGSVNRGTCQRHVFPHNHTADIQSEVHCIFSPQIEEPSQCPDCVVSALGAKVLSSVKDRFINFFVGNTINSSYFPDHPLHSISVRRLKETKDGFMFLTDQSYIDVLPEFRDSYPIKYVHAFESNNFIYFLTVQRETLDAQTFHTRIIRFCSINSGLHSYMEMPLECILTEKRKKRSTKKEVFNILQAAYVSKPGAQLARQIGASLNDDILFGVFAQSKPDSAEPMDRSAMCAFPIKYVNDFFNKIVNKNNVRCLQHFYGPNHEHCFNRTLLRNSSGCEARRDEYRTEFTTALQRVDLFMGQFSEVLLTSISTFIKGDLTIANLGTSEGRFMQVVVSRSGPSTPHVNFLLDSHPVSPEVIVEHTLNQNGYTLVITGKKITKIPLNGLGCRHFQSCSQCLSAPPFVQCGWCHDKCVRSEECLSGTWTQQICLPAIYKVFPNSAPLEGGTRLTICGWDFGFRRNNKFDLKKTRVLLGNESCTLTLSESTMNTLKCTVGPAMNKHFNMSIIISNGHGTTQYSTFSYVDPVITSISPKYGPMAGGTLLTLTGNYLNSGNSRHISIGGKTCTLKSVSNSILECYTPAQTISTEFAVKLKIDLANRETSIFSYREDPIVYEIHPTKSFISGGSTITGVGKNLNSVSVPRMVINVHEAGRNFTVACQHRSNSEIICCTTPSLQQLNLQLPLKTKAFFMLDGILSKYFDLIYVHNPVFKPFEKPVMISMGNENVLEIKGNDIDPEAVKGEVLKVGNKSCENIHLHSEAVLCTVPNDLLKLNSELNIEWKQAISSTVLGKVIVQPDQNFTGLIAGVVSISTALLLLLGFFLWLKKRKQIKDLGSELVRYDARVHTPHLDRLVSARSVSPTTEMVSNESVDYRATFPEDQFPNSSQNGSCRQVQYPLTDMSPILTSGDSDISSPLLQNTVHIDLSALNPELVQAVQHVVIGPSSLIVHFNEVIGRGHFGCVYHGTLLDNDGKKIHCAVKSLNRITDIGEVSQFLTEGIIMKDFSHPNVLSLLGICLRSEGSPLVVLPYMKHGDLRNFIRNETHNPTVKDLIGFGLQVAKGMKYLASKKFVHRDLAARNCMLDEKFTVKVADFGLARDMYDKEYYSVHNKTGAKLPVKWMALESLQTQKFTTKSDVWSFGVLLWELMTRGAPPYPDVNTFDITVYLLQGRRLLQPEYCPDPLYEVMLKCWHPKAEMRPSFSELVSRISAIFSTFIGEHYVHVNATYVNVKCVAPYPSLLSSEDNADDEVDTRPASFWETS

MCF7 [9] = experiment: Potency index, ratio of foretinib IC50 to test compound IC50 for antiproliferative activity against human MCF7 cells; format: functional
[10] = biological target: T2, Receptor-type tyrosine-protein kinase FLT3 (Homo sapiens, UniProt P36888); experiment: Inhibition of human N-terminal GST-fused FLT3 cytoplasmic domain (564 to 993 residues) expressed in baculovirus expression system using Srctide as substrate measured after 1 hr by mobility shift assay
T2 sequence (P36888 whole entry): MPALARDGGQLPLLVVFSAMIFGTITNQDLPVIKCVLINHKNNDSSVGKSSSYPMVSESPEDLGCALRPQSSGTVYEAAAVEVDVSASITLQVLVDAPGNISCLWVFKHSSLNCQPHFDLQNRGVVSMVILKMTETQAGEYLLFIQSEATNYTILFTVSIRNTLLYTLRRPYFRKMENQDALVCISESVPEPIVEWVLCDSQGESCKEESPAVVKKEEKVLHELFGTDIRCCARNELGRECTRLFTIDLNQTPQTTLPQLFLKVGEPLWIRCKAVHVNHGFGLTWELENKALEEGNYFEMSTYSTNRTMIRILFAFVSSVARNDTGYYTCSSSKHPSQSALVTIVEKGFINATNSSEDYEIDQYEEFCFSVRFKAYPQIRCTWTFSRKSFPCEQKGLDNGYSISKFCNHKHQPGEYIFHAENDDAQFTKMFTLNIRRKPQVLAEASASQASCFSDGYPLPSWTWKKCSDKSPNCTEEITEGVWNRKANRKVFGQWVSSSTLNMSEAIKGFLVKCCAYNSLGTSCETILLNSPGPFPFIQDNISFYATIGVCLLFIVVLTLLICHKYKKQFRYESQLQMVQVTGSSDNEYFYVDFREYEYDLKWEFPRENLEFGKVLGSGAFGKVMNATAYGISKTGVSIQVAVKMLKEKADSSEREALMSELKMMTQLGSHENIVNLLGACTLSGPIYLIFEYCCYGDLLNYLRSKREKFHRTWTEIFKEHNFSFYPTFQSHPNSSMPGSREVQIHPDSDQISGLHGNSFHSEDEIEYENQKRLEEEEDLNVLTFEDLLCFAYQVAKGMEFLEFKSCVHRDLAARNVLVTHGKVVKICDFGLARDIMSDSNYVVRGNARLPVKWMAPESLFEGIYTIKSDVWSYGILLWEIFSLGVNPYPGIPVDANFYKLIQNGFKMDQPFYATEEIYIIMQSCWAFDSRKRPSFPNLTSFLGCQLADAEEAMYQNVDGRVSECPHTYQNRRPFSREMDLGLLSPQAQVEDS

[11] = biological target: Vascular endothelial growth factor receptor 3 (Homo sapiens) (UniProt P35916); experiment: Inhibition of Flt4 (unknown origin) at 200 nM relative to control
Sequence of Vascular endothelial growth factor receptor 3 (Homo sapiens) (P35916 whole entry): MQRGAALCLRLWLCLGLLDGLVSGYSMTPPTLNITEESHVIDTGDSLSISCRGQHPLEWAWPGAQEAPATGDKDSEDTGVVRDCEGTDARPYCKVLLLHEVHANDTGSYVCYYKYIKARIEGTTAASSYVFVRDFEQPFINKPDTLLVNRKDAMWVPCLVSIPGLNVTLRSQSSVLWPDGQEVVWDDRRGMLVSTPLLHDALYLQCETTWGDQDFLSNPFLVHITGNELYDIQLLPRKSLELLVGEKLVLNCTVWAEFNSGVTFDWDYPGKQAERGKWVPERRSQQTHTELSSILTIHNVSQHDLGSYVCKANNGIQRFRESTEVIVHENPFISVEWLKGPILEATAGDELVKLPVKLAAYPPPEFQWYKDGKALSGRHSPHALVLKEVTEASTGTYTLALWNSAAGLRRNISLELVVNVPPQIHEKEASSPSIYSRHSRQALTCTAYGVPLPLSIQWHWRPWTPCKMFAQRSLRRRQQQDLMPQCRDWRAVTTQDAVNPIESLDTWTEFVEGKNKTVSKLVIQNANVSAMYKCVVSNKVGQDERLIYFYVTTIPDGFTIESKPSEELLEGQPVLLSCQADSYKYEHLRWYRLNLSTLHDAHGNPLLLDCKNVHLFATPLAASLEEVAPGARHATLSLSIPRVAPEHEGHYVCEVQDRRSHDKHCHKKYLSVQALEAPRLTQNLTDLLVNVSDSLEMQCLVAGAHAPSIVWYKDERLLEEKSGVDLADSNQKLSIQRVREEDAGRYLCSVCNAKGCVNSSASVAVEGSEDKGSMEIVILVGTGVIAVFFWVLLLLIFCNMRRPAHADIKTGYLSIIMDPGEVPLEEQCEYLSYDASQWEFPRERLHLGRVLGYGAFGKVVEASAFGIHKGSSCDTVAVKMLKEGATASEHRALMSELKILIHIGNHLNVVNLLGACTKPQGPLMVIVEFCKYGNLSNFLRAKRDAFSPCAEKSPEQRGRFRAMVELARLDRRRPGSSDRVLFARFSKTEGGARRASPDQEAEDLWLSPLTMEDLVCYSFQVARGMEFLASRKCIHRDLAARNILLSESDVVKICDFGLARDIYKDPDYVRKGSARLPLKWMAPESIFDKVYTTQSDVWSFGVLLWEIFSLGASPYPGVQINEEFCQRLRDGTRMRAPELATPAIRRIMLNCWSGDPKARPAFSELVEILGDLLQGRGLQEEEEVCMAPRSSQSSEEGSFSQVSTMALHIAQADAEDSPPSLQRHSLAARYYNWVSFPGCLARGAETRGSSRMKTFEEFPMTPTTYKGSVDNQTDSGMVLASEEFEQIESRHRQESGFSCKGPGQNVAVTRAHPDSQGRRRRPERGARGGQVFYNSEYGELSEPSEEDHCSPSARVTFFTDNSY

## COc1cc2c(Oc3ccc(NC(=O)C4(c5nnc(-c6ccc(F)cc6)o5)CC4)cc3F)ccnc2cc1OCCCN1CCCCC1
MCF7 [1]
  IC50: 1010 nM
[2]
  IC50: > 200 nM
[3]
  inhibition: > 80%
[4]
  IC50: > 200 nM
[5]
  IC50: 81 nM
PC-3
  IC50: 590 nM
NCI-H1975
  IC50: 99 nM
HT-29 [6]
  Ratio IC50: 1.57
H1975/Gefitinib
  IC50: 107 nM
HT-29 [7]
  IC50: 1030 nM
[8]
  IC50: 71 nM
MCF7 [9]
  Ratio IC50: 2
[10]
  IC50: 103 nM
[11]
  inhibition: > 80%
